These results are taken from patent publication US8507464B2, “Phosphoramidate alkylator prodrugs” (Threshold Pharmaceuticals, Inc., priority 2005, dated 2013).

In series [1] the test system is HT-29 human colon carcinoma xenograft. Briefly: HT-29 human colon carcinoma xenograft mouse model (Example 47). Format: in vivo. Particulars: Group 8: 5FU 10 mg/kg; vs vehicle. The method, then:
Female CB17/SCID mice (purchased from Charles River, Cambridge, Mass.), 7-8 weeks of age, were allowed to acclimatize for at least three days, and handled under pathogen-free conditions. Human colon carcinoma cell line HT-29 was obtained from the American Type Culture Collection. The cell lines were cultured in RPMI 1640 media supplemented with 10% fetal bovine serum. Cells were maintained in a 37° C. incubator with 5% CO2. The HT-29 cells were harvested from culture and inoculated at 3×10^6 cells/animal in the peritoneal subcutaneous space. When the tumors grew to an average volume of 100 mm^3 (day 8), each group of 10 mice was administered, for three weeks, vehicle alone (saline and PEG (10 mL/kg each), Group 1), Compound 36 alone (dissolved in 30% cyclodextrin in PBS) at a daily dose of 20, 60, or 200 mg/kg (Groups 2, 3 and 4, respectively), and Compound 36 at a daily dose of 20, 60, and 200 mg/kg given 2-3 hours after a dose of 10 mg/kg of 5FU (in saline) (Group 5, 6 and 7, respectively) and compared to a group receiving only 5FU at 10 mg/kg (Group 8) as tabulated below.
The body weight of each mouse was recorded twice per week. Growth of each xenograft was monitored by externally measuring tumors in two dimensions using a digital caliper twice per week. Tumor volume (V) was determined by the following equation: V=(L×W^2)/2, where L is the length and W is the width of a xenograft. Tumor volumes were measured twice weekly.

In series [2] the test system is NCI-H460 cells. Briefly: Antiproliferation assay (Alamar Blue), anoxia vs air. (In general: Resazurin is reduced to fluorescent resorufin, in cell work by metabolically active cells.)
Series [3] concerns mouse (MLM) liver microsomal proteins. The series is classed as in vitro ADME. As to conditions: Table 2B.
Series [4] in a line: in vivo.
Series [5] concerns NCI-H460 cells. The experiment in a line: Antiproliferation assay - oxygen dependence. Format: cell-based, human. An excerpt: . […] The calculated IC50 values (μM) are tabulated in Table Y1 (H460 cells) or Table Y2 (HT29 cells) below.
The subject of series [6] is HT29. Briefly: Anti-proliferation assay, hypoxia vs normoxia (Table 1B). As to conditions: for IC50: Homo sapiens.
Series [7] is classed as physicochemical. As to conditions: glassy carbon, Ag/AgCl reference; for Reduction Potentials, 100 mV/sec: scan rate 100 mV/sec; for Reduction Potentials, 10,000 mV/sec: scan rate 10,000 mV/sec.
The nature of series [8]: in vivo. Particulars: CD-1, mouse, 50 mg/kg.
A short description of series [9]: Plasma stability (Table 2B).
In series [10] the test system is HT29 cells. Briefly: Antiproliferation assay (Alamar Blue), anoxia vs air. Particulars: Homo sapiens, HT-29, 2 h.
The test system of series [11] is H460 cell line. Briefly: Anti-proliferation assay, hypoxia vs normoxia (Table 1A). As to conditions: for IC50: Homo sapiens; for HCR P: ratio of IC50 in normoxia and hypoxia.
The subject of series [12] is HCT116. Briefly: Anti-proliferation assay, hypoxia vs normoxia (Table 1B). As to conditions: for IC50: Homo sapiens.
In series [13] the test system is MES-SA cells. The experiment in a line: Antiproliferation assay (Alamar Blue), anoxia vs air. Particulars: Homo sapiens, 2 h.
Series [14] has as its system H460 lung carcinoma spheroids. Briefly: Spheroid model, clonogenic survival. As to conditions: read-out: IC90 H460 Spheroid 10% O2.
Series [15] deals with NCI-H460 cells. The experiment in a line: Clonogenic assay - oxygen dependence. Particulars: Homo sapiens.
The test system of series [16] is H460 cells exposed as monolayers. The experiment in a line: Clonogenic survival of monolayer cells (Example 35). As to conditions: Homo sapiens, NCI-H460, 2 h.
Setting [17] is: Homo sapiens, NCI-H460, 2 h, read-out: IC50 H460 Air, air, 2 h exposure.
The mark [18] stands for this setting: Homo sapiens, NCI-H460, 2 h, read-out: IC50 H460 Anoxia, anoxia, 2 h exposure.
Where [19] appears, read: CD-1, Balb/c for Compound 1, mouse, iv.
Where [20] appears, read: Homo sapiens, NCI-H460, read-out: IC50 in H460 cells, 0.6% O2.
Setting [21] is: Homo sapiens, NCI-H460, read-out: IC50 in H460 cells, 1% O2.
Setting [22] is: Homo sapiens, NCI-H460; read-out: IC50 in H460 cells, Air.
Setting [23] is: Homo sapiens, NCI-H460; read-out: IC50 in H460 cells, N2.
The mark [24] stands for this setting: HT-29, read-out: HT29 P H (proliferation IC50, hypoxia).
Where [25] appears, read: HT-29, read-out: HT29 P N (proliferation IC50, normoxic).
The mark [26] stands for this setting: NCI-H460, read-out: Hypoxia P (proliferation IC50).
The mark [27] stands for this setting: NCI-H460, read-out: Normoxia P (proliferation IC50).
Setting [28] is: Homo sapiens, NCI-H460, read-out: IC50 in H460 cells, 0.3% O2.
Where [29] appears, read: Homo sapiens, NCI-H460, read-out: IC50 in H460 cells, Air.
Where [30] appears, read: Homo sapiens, NCI-H460, read-out: IC50 in H460 cells, N2.
[31] abbreviates: read-out: IC50 H460 Air, air, 2 h exposure.
Where [32] appears, read: NCI-H460, read-out: IC90 H460 0.6% O2.
Setting [33] is: NCI-H460, read-out: IC90 H460 Air.
[34] abbreviates: NCI-H460, read-out: IC90 H460 N2.
The mark [35] stands for this setting: read-out: IC90 H460 Monolayer N2.

Read-outs that look alike come from different tables or passages of the source.

As to `O=c1[nH]cc(F)c(=O)[nH]1` [Compound 5FU, 5-fluoro-2,4(1H,3H)-pyrimidinedione, reference compound], the “% Inhibition vs Group 1” value in [1] came to 38.7%.
For `CN(CCCl)P(=O)(OCc1cnc([N+](=O)[O-])n1C)N(C)CCCl` [Compound 5], the IC50 in series [2] (setting [17]) is 6 µM; in series [2] (setting [18]), 0.05 µM; in [5] (Homo sapiens, NCI-H460, read-out: IC50 in H460 cells, 0.1% O2), 1 µM; in [5] (setting [20]) it was 1 µM; in series [5] (setting [21]), 10 µM; in series [5] (Homo sapiens, NCI-H460, read-out: IC50 in H460 cells, 10% O2), 5 µM. Moreover, the IC50 in series [5] (setting [22]) is 40 µM; in series [5] (setting [23]), 0.03 µM; in series [6] (setting [24]), 10 µM; in [6] (setting [25]), more than 100 µM; in series [10] (read-out: IC50 HT29 Air), more than 100 µM; in series [10] (read-out: IC50 HT29 Anoxia) it was 10 µM. In addition, the IC50 turned out to be 4.5 µM in series [11] (setting [26]) and 3.5 µM in [11] (setting [27]). For the same molecule, the “Metabolic stability (MLM) (% at 30 min)” value in series [3] came out at 5%. The “Metabolic stability (MLM), value in parentheses” value in series [3] (parentheses not explained) is reported as “(20) %”. Moreover, the clearance (usually a measure of how efficiently the substance is removed, as volume per time) in series [4] (CD-1 (Compounds 5, 23, 36), Balb/c (Compound 1), mouse, iv) amounted to 185 mL/min/kg. Further, the Cmax – broadly, the highest concentration seen after dosing – stood at 3000 ng/mL in [4] (CD-1, Balb/c for Compound 1, mouse, ip); 16900 ng/mL in [4] (setting [19]); 3000 ng/mL in series [8] (ip); 16900 ng/mL in series [8] (iv). The AUC (usually the area under the concentration-time curve, a measure of exposure) turned out to be 4500 ng·h/mL in series [4] (setting [19]); 1000 ng·h/mL in series [4] (CD-1, mouse, ip); 57400 ng·h/mL in [8] (ip); 270000 ng·h/mL in series [8] (iv). Further, the Vd (in general, the apparent volume that relates the amount in the body to the concentration in plasma or blood) in series [4] (setting [19]) turned out to be 1.25 L/kg. The half-life – broadly, the time in which the quantity being followed falls by half – is 4.8 min in series [4] (CD-1, Balb/c for Compound 1, mouse, iv, t ½, intravenous administration in mice, mice); 2.56 min in series [8] (ip); 4.67 min in [8] (iv). Also, the “HT29 HCR P” value in series [6] is reported as more than 10. The “Reduction Potentials, 100 mV/sec” value in series [7] is on record as −606 mV. Besides, the “Reduction Potentials, 10,000 mV/sec” value in [7] is −634 mV. Further, the time of peak concentration (Tmax) in [8] (ip) and in [8] (iv) was 5 min each time. Besides, in [9], the “Plasma stability (% at 30 min)” value is 100%. The “Plasma stability, value in parentheses” value in series [9] (parentheses not explained) is recorded as “(85) %”. Further, in series [11], the “HCR P” value was 1.
Regarding `O=[N+]([O-])c1ccc(COP(=O)(NCCBr)NCCBr)s1` [Compound 34], the “HCT116 HCR” value in series [12] is given as 77. Besides, the IC50 was 0.13 µM in series [12] (HCT-116, read-out: HCT116 P H (proliferation IC50, hypoxia)); 10 µM in series [12] (HCT-116, read-out: HCT116 P N (proliferation IC50, normoxic)); 1.8 µM in series [2] (setting [17]); 0.01 µM in series [2] (setting [18]); 1 µM in series [5] (setting [28]); 5 µM in [5] (setting [29]). Besides, the IC50 was 0.01 µM in series [5] (setting [30]); 0.8 µM in series [6] (setting [24]); 57 µM in series [6] (setting [25]); 57 µM in series [10] (read-out: IC50 HT29 Air); 0.8 µM in series [10] (read-out: IC50 HT29 Anoxia); less than 0.01 µM in series [11] (setting [26]). In addition, the IC50 worked out at 1.8 µM in [11] (setting [27]), 10 µM in series [13] (read-out: IC50 MES-SA Air) and 0.13 µM in series [13] (read-out: IC50 MES-SA Anoxia). Further, the “Metabolic stability (MLM) (% at 30 min)” value in [3] was found to be 28%. For the same molecule, the “HT29 HCR P” value in [6] came to 70. In addition, the “Reduction Potentials, 100 mV/sec” value in series [7] is on record as −584 mV. Also, the “Reduction Potentials, 10,000 mV/sec” value in [7] is recorded as −663 mV. In addition, in series [9] (at 20 min), the “Plasma stability (at 20 min)” value is given as 85%. The “HCR P” value in [11] is recorded as more than 180.
For `Cn1c(COP2(=O)N(CCBr)CCCN2CCBr)cnc1[N+](=O)[O-]` [Compound 35], the IC50 in [2] (setting [17]) came out at 50 µM; in series [2] (setting [18]) it was 0.075 µM; in series [2] (setting [31]), 55 µM; in series [5] (setting [28]), 6 µM; in series [5] (setting [20]), 5 µM; in series [5] (setting [21]), 40 µM. Further, the IC50 in series [5] (setting [22]) is 50 µM; in [5] (setting [23]) it was 0.05 µM; in series [10] (read-out: IC50 HT29 Air) it was more than 100 µM; in series [10] (read-out: IC50 HT29 Anoxia), 1.8 µM; in [11] (setting [26]), 0.075 µM; in series [11] (setting [27]), 50 µM. Also, the IC50 in series [13] (read-out: IC50 MES-SA Air) was 100 µM; in series [13] (read-out: IC50 MES-SA Anoxia) it was 1 µM. In addition, in [3], the “Metabolic stability (MLM) (% at 30 min)” value was 56%. The 90% effect concentration (IC90) – broadly, the concentration needed for an effect of 90% – in series [14] (Homo sapiens, NCI-H460, 2 h) stood at 22 µM; in series [15] (setting [32]) it was 3 µM; in series [15] (setting [33]), 30 µM; in series [15] (setting [34]) it was 0.5 µM. Also, the “Plasma stability (% at 30 min)” value in series [9] is 85%. Moreover, the “HCR P” value in [11] is 625.
As for `COC(=O)c1cc(C(C)OP(=O)(NCCBr)NCCBr)ccc1OCc1cnc([N+](=O)[O-])n1C` (centres unmarked) [Compound 70], the IC50 came to 65 µM in series [2] (setting [17]); 2 µM in series [2] (setting [18]); 30 µM in [5] (setting [20]); 65 µM in series [5] (setting [29]); 2 µM in [5] (setting [30]). In addition, the IC90 was 25.5 µM in [14] (Homo sapiens, NCI-H460, 2 h); 1.25 µM in series [16] (setting [35]); 8 µM in series [15] (setting [32]); 20 µM in series [15] (setting [33]); 2 µM in [15] (setting [34]).
`N#Cc1cc(COP(=O)(NCCBr)NCCBr)sc1[N+](=O)[O-]` [Compound 97]: the IC50 in [2] (setting [31]) came out at 0.1 µM; in [2] (read-out: IC50 H460 Anoxia, anoxia, 2 h exposure), 0.01 µM; in [5] (Air; read-out: IC50 in H460 cells, Air), 0.02 µM; in series [5] (N2; read-out: IC50 in H460 cells, N2) it was 0.006 µM; in series [5] (read-out: IC50 in H460 cells, 0.6% O2), 0.01 µM. For the same molecule, the IC90 in series [14] (2 h exposure, 10% O2) was determined as 13 µM.
Consider `Nc1n[n+]([O-])c2ccccc2[n+]1[O-]` [Tirapazamine, reference compound], for which the IC90 in [14] (Homo sapiens, NCI-H460, 2 h) is more than 200 µM; in [16] (read-out: IC90 H460 Monolayer 0.6% O2) it was 27 µM; in series [16] (read-out: IC90 H460 Monolayer Air), more than 100 µM; in [16] (setting [35]), 14 µM.
